{
  "source": "patent US6503524B1",
  "about": "“Delivery of a skin health benefit agent to a treated substrate for transfer to skin” (Kimberly-Clark Worldwide, Inc., priority 2000, dated 2003)",
  "key": {"[1]": {"system": "proteolytic activity of a fecal extract", "conditions": "zinc sulfate heptahydrate 0-1 mM; FIG. 7", "procedure": "The supernatant was filtered through 0.22 micron cellulose acetate filters and stored at −80° C. until use."}, "[2]": {"system": "proteolytic activity of infant urine", "conditions": "zinc sulfate heptahydrate 0-50 mM; FIG. 8", "experimental": "The proteolytic activity of infant urine was measured using fluorescently labeled casein.\nTwo (2) infant urine (100 μL) samples were added to wells of a 96 white plate (Dynex) containing 80 μL of 12.5 μg/ml solution of a fluorescent dye-labeled casein substrate (EnzChek Protease Assay Kit (E-6639)) in 100 mM Tris-HCl, pH 8.0, and allowed to incubate for 60 minutes at 37° C. […] Reaction of the infant urine with the casein substrate cleaved the fluorescent dye from the substrate. RFUs were collected using the Fluoroskan Ascent System with excitation and emission filters of 485 and 538 nm, respectively. Data were collected each minute for 60 minutes at 37° C. and rates (RFU/min) from 30-50 minutes were calculated for each zinc concentration. Using the uninhibited wells as 100% protease activity, percent of urine proteolytic activity remaining was determined for each concentration of zinc inhibitor (Inhibited Rate/Uninhibited rate* 100)."}, "[3]": {"system": "EpiDerm™ 201 synthetic skin (keratinocytes), interleukin-1 alpha release", "text": "The synthetic skin, EpiDerm™ 201 (MatTek Corporation, Ashland, Mass. contains keratinocytes that release interleukin-1 alpha (IL-1 alpha) when subjected to proteases in the fecal extract. When the IL-1 alpha was released, it diffused from the skin into the fluid below the EpiDerm™. Samples of this fluid were taken and analyzed for the presence of the IL-1 alpha. Higher levels of IL-1 alpha was indicative of greater skin irritation.\nPrior to application onto the EpiDerm™, the fecal extract (10.4 μL) was pre-incubated for 30 minutes at room temperature with 250 mM zinc sulfate heptahydrate in water (2.6 μL). Water only and fecal extract only samples served as controls. After application of the samples to the EpiDerm™, 25 μL aliquots were removed from the underlying media at 8, 12, and 24 hours to test for the presence of the IL-1 alpha. The aliquots were directly added to a 1.5 mL micro-centrifuge tube containing 225 μL of filtered-sterilized 20 mM tris-HCl, pH 8.0, 1% BSA buffer and stored at −80° C. After all samples were collected, IL-1 alpha levels were quantified using the R&D Systems Interleukin-1 alpha Quantikine Kit (R&D Systems, Minneapolis, Minn."}, "[4]": {"experiment": "not given", "remark": "listed apart in the source"}, "[5]": {"conditions": "1.0 mM zinc sulfate heptahydrate"}, "[6]": {"conditions": "2.5 mM zinc sulfate heptahydrate"}, "[7]": {"conditions": "5.0 mM zinc sulfate heptahydrate"}, "[8]": {"conditions": "10.0 mM zinc sulfate heptahydrate"}, "[9]": {"conditions": "20.0 mM zinc sulfate heptahydrate"}, "[10]": {"conditions": ".1 mM zinc sulfate heptahydrate"}, "[11]": {"conditions": "increased concentration of zinc sulfate heptahydrate (Table 1)"}},
  "note": "Where two headings read alike, the source gives them in different places.",
  "data": [
    {"smiles": "O.O.O.O.O.O.O.O=S(=O)([O-])[O-].[Zn+2]", "note": "[zinc sulfate heptahydrate]", "values": [
      {"measurement": "inhibition of hydrolysis of casein by the fecal extract (percent of fecal proteolytic activity remaining)", "setting": "[1]", "value": "effectively inhibited the hydrolysis of casein by the fecal extract in a dose-dependent manner"},
      {"measurement": "pH, Infant Urine Example F", "setting": "[5]", "value": 8.0},
      {"measurement": "pH, Infant Urine Example G", "setting": "[5]", "value": 7.0},
      {"measurement": "pH, Infant Urine Example H", "setting": "[5]", "value": 7.5},
      {"measurement": "pH, Infant Urine Example F", "setting": "[6]", "value": "7.5-8.0"},
      {"measurement": "pH, Infant Urine Example G", "setting": "[6]", "value": 6.5},
      {"measurement": "pH, Infant Urine Example H", "setting": "[6]", "value": "7.0-7.5"},
      {"measurement": "pH, Infant Urine Example F", "setting": "[7]", "value": 7.5},
      {"measurement": "pH, Infant Urine Example G", "setting": "[7]", "value": 5.5},
      {"measurement": "pH, Infant Urine Example H", "setting": "[7]", "value": 7.0},
      {"measurement": "pH, Infant Urine Example F", "setting": "[8]", "value": 7.0},
      {"measurement": "pH, Infant Urine Example G", "setting": "[8]", "value": 5.0},
      {"measurement": "pH, Infant Urine Example H", "setting": "[8]", "value": 6.5},
      {"measurement": "pH, Infant Urine Example F", "setting": "[9]", "value": 7.0},
      {"measurement": "pH, Infant Urine Example G", "setting": "[9]", "value": 5.0},
      {"measurement": "pH, Infant Urine Example H", "setting": "[9]", "value": 6.5},
      {"measurement": "pH, Infant Urine Example F", "setting": "[10]", "value": 8.5},
      {"measurement": "pH, Infant Urine Example G", "setting": "[10]", "value": 7.0},
      {"measurement": "pH, Infant Urine Example H", "setting": "[10]", "value": 8.0},
      {"measurement": "reduction of pH of the infant urine samples", "setting": "[11]", "value": "1.5-2.0 pH units"},
      {"measurement": "inhibition of hydrolysis of casein by infant urine (percent of urine proteolytic activity remaining)", "setting": "[2]", "value": "effectively inhibited the hydrolysis of casein by infant urine in a dose-dependent manner"},
      {"measurement": "proteolytic activity of fecal extract on synthetic skin (IL-1 alpha release)", "setting": "[3]; 0, 25, 50, 125 and 250 mM zinc sulfate heptahydrate, FIG. 10", "value": "effectively inhibits the proteolytic activity of fecal extract in a dose-dependent manner"},
      {"measurement": "interleukin-1 alpha released into the underlying media", "setting": "[3]; FE+zinc (250 mM, 2.6 μL) relative to FE+water, 8, 12 and 24 hours, FIG. 9", "value": "reduced the amount of interleukin-1 alpha released"},
      {"measurement": "pH, Fecal Extract Example B", "setting": "[4]; [5]", "value": 6.5},
      {"measurement": "pH, Fecal Extract Example B", "setting": "[4]; [6]", "value": "6.0-6.5"},
      {"measurement": "pH, Fecal Extract Example B", "setting": "[4]; [7]", "value": 6.0},
      {"measurement": "pH, Fecal Extract Example B", "setting": "[4]; [8]", "value": 5.5},
      {"measurement": "pH, Fecal Extract Example B", "setting": "[4]; [9]", "value": 5.5},
      {"measurement": "pH, Fecal Extract Example B", "setting": "[4]; [10]", "value": 6.5},
      {"measurement": "reduction of pH of the fecal extract sample", "setting": "[4]; [11]", "value": 1, "unit": "pH unit"}
    ]}
  ]
}
